Data on seven molecules can be found in BindingDB's records for doi:10.1016/s0960-894x(01)00004-x (Seoul National University, 2001).

The target in the assay is Prostaglandin G/H synthase 1 (Oryctolagus cuniculus). As to the kind of experiment: Inhibitory activity against Prostaglandin G/H synthase 1 from rabbit renal microsomes.

Structures are written as SMILES. Where only a bound is given, the exact number is not on record here.

By IC50 is commonly meant the point on the concentration scale where inhibition reaches its midpoint. The low end stands for inhibition by little substance, the high end for a need for much substance. Regarding `C=C[C@@]1(C)CC=C2C(CCC3[C@](C)(C(=O)OC)CCC[C@@]23C)C1` (stereo partly drawn) [(1R,4aR,7S)-1,4a,7-Trimethyl-7-vinyl-1,2,3,4,4a,6,7,8,8a,9,10,10a-dodecahydro-phenanthrene-1-carboxylic acid methyl ester], the IC50 is above 1000 µM.

On to `C=C[C@@]1(C)CC=C2C(CCC3[C@](C)(C(=O)NO)CCC[C@@]23C)C1` (stereo partly drawn) [(1R,4aR,7S)-1,4a,7-Trimethyl-7-vinyl-1,2,3,4,4a,6,7,8,8a,9,10,10a-dodecahydro-phenanthrene-1-carboxylic acid hydroxyamide], for which the IC50 was determined as 45.6 µM. This lies in the double-digit micromolar range.

In turn, `C[C@]1(CCF)CC=C2C(CCC3[C@](C)(C(=O)F)CCC[C@@]23C)C1` (stereo partly drawn) [(1R,4aR,7S)-7-(2-Fluoro-ethyl)-1,4a,7-trimethyl-1,2,3,4,4a,6,7,8,8a,9,10,10a-dodecahydro-phenanthrene-1-carbonyl fluoride] showed a concentration for half-maximal inhibition (IC50) of 18.4 µM.

Take `C=C[C@@]1(C)CC=C2C(CCC3[C@](C)(CO)CCC[C@@]23C)C1` (some centres not stated) [acanthol]: the IC50 was 791 µM. This IC50 is about 43-fold higher than that of the molecule before.

Molecule `C=C[C@@]1(C)CC=C2C(CCC3[C@](C)(CCC/C=C/C(=O)O)CCC[C@@]23C)C1` (stereo partly drawn) [(E)-6-((1R,4aR,7S)-1,4a,7-Trimethyl-7-vinyl-1,2,3,4,4a,6,7,8,8a,9,10,10a-dodecahydro-phenanthren-1-yl)-hex-2-enoic acid] had a half-inhibitory concentration (IC50) of 32.7 µM.

As for `C=C[C@@]1(C)CC=C2C(CCC3[C@](C)(CC(=O)O)CCC[C@@]23C)C1` (stereo partly drawn) [((1S,4aR,7S)-1,4a,7-Trimethyl-7-vinyl-1,2,3,4,4a,6,7,8,8a,9,10,10a-dodecahydro-phenanthren-1-yl)-acetic acid], the half-maximal inhibitory concentration (IC50) stood at 28.1 µM.

Take `CC[C@@]1(C)CC=C2C(CCC3[C@](C)(C(=O)O)CCC[C@@]23C)C1` (stereo partly drawn) [(1R,4aR,7S)-7-Ethyl-1,4a,7-trimethyl-1,2,3,4,4a,6,7,8,8a,9,10,10a-dodecahydro-phenanthrene-1-carboxylic acid]: the half-inhibitory concentration (IC50) is 229 µM. Compared with the last molecule, the IC50 is about 8.1-fold higher.
